“And” between values parts separate entries of the source, which are not always exact repeats. Identical values can stand only once. “Also recorded” adds a separate entry of the source. Peptide text beside a SMILES is read from it.
How the values were obtained:
[1] = system: hepatic GSH; assay: Test No. 1: protection from ethanol acute administration, hepatic GSH content; format: in vivo, male albino Wistar rats; parameters: GSH Content: unit not given beside the values; settings: for GSH Content: liver, ethanol 3 g/kg i.p.
Experimental: Protection from ethanol acute administration […] Male albino Wistar rats weighing between 180 and 230 g were used. All animals were fasted for 24 hours prior to administration of isotonic solution, ethanol or ethanol combined with the test substances. As concerns the test substances, rats were intraperitoneally (i.p.) injected with compound of formula I (R=CH3) at doses of 10, 30, and 50 mg/kg and, for purposes of comparison, with the single constituents of compound (I) (R=CH3), […] (O-PRO) and L-cysteine (CIS), both at a 50 mg/kg dose. One hour after administration of the test substance, ethanol was injected i.p. at the dose of 3 g/kg. Thirty minutes later, the animals were sacrificed by decapitation and their liver was excised. […] Orwar et al., J. Chromatrogr., 556, 39-55 (1991).

[2] = system: hepatic GSH; assay: Test No. 4: dichloropropane (DCP) intoxication in vivo, hepatic GSH; parameters: species or system rat
Experimental: (§1) A test was carried out in vivo on four groups of four rats each, using, as a toxic substance, dichloropropane (DCP), the main constituent of several solvents. DCP is noxious both by ingestion and inhalation and has a notable toxicity to the liver, mediated by an almost total depletion of thiol groups, including those of GSH.
(§2) The experimental model involves the study of the effect of DCP toxicity in the rat, in respect of glutathione (GSH) concentration in the main target tissue: the liver.
(§3) Tests were carried out on four groups of rats. The first group of animals was administered 2 ml DCP/kg dissolved in oil (40% v/v) per os. Twenty-four hours after DCP administration, blood samples were taken for SGPT measurement, while the animals were sacrificed; small portions of liver were then excised and immediately deproteinized by homogenization in 6% PCA. The chromatographic analyses of GSH and GSSG (oxidized glutathione) were performed.
(§4) The second group of animals was treated with the test drug (600 mg/kg i.p.) two hours after DCP administration. The third and fourth groups were treated with N-acetyl-cysteine (NAC) (250 mg/kg i.p.) and, respectively, with glutathione (Tationil^R) (600 mg/kg i.p.).
An evaluation of the protective action of the test drug in respect of glutathione involvement in hepatic protection mechanisms was thus possible.

[3] = system: serum GPT; assay: Test No. 4: dichloropropane (DCP) intoxication in vivo, serum GPT; parameters: species or system rat
Experimental: as §1, §2, §3, §4

[4] = system: peripheral lymphocytes; assay: Blastization with concavaline A (ConA) of peripheral lymphocytes of PSC-treated rats; format: in vivo, Sprague-Dawley rats
Experimental: Sprague-Dawley rats (Charles River, Calco (CO)), aged 10 weeks (young adults) and 24 months (old), were stabled under standard conditions (24°±1° C., 12 h light/dark cycle, free access to food and water). Handlings were made in such a way as to avoid stressful stimuli.
The animals were stabled in groups of 6 per cage and treated for 2 weeks (15 days) with a PSC daily dose of 600 mg/kg by intraperitoneal route (i.p.).
Once the treatment with PSC previously described in the paragraph "Animals" was completed, the animals, both young and old, were sacrificed by decapitation and the blood collected in heparin-treated tubes. The blood samples were stratified on Ficoll-Paque gradient and centrifuged at 2500 rpm for 15 min. The lymphocytic cellular fraction was taken by suction and washed three times with a Lphysiological solution (0.9% NaCl). At the end of the treatment, the cells were resuspended in culture medium RPMI 1640 containing 10% FBS, counted (1×10^5 cells/0.1 ml/well) and incubated for 48 hrs at 37° C., in a 5% carbon dioxide environment. At the incubation end, mitogens concavaline A (ConA) and phytohaemagglutinin (PHA) were added to the cultures at a concentration of 1 μg/ml in a volume of 0.1 ml. Eighteen hours later, tritiated thymidine (0.01 ml) was added to the cultures, subsequently incubated for 3 hrs. At the incubation end, cells were sucked by cell harvester and the filters were placed in scintillation vials with addition of 5 ml of scintillating solution. Radioactivity (dpm) was measured 2 min. using a β-counter.
The results obtained on ConA- or PHA-treated groups (controls), on PSC-treated groups (600 mg/kg), and on groups that had not been treated either with ConA or PSC are compared in Tables 14 and 15.

[5] = system: urethane-induced tumours of the lungs; assay: Urethane-induced tumours of the lungs in albino Swiss mice; format: in vivo
Experimental: Male albino adult Swiss mice (20-25 g) were used. All animals were inoculated i.p. with urethane. The animals were treated with PSC (600 mg/kg) 15 days prior to and after inoculation. Once the treatment was completed, the animals were sacrificed, their lungs excised and subjected to necrohistologic examination.

[6] = system: malonic aldehyde (MDA) in brain; assay: PSC effect on lipid peroxidation (MDA) in rat SNC; format: in vivo, male Wistar rats; settings: old animals, 100 mg/kg i.p.
Text: Since lipid peroxidation, i.e. the oxidation of an α-methylenic bridge of a polyunsaturated fatty acid, is a process that, through the formation of intermediates (such as lipid peroxides and hydroperoxides), provide carbonyl fragments, including malonic aldehyde (MDA), efforts were made by the Applicant to check whether administration of the test molecule might reduce MDA levels in the SNC, which are closely related to the presence of free radicals and, consequently, to a potential neuronal damage, which is strongly responsible for the induction of age-related alterations.
The test was carried out on male Wistar rats stabled in groups of 5/cage, at 21° C. and constant light/dark cycle, fed with standard laboratory food.
[…] was assayed both on young and old rats, prior to and after treatment with PSC (100 mg/kg). A few hours after treatment, all animals were sacrificed and their brain readily excised. MDA was determined by a micromethod modified according to Slater and Sawyer (Slater T. F. and Sawyer B. C., 1971, J. Biochem., Tokio 8: 2180). The tissue was maintained 10 min. at 0° C. in 0.05M Tris-HCl buffer, pH 7.4, and homogenized. […] After cooling, the absorbance at 532 nm was recorded by a spectrophotometer. […] Proteins were measured by Smith's method using, as a reagent, bicinchoninic acid (BCA) (Smith et al., 1985, Anal. Biochem., 27, 502).

[7] = Behaviour and death rate of the test groups under PSC treatment; settings: in vivo
[8] = 600 mg/kg, analogous for ConA and PHA
[9] = 600 mg/kg i.p., 30 days' treatment, 15 days after urethane i.p.

SMILES: CC(=O)SC[C@H](NC(=O)[C@@H]1CCC(=O)N1)C(=O)O [PSC, 2-(S)-(2-pyrrolidone-5-(S)-carbonyl amido)-3-acetylmercapto propionic acid] (HELM PEPTIDE1{[Glp].C}|PEPTIDE2{[ac]}$PEPTIDE1,PEPTIDE2,2:R3-1:R2$$$V2.0)
- hepatic glutathione formation (in words) ([1]; ethanol-treated rats): enhances hepatic glutathione formation nearly to physiological levels
- GSH Content ([1]; test substance 10 mg/kg i.p.): 3.6 ± 0.3
- GSH Content ([1]; test substance 30 mg/kg i.p.): 4.3 ± 0.6
- GSH Content ([1]; test substance 50 mg/kg): 5.8 ± 0.4
- normalization of hepatic GSH (in words) ([2]; DCP-treated rats): could not normalize the values of hepatic GSH
- GSH, average values ([2]; liver, DCP 2 ml/kg per os + 600 mg/kg i.p.): 2.7 nmol/mg protein
- GSH, individual animals ([2]; liver, DCP 2 ml/kg per os + 600 mg/kg i.p., animals 1-4, listed as (I) (R = CH3), 600 mg/kg): 2.6 nmol/mg protein and 2.4 nmol/mg protein and 3.4 nmol/mg protein
- GPT, average values ([3]; DCP + 600 mg/kg i.p.): 22.0 U/1
- GPT, individual animals ([3]; DCP + 600 mg/kg i.p., animals 1-4, listed as (I) (R = CH3), 600 mg/kg): 24.4 U/1 and 26.4 U/1 and 17.4 U/1 and 20.1 U/1
- GPT ([3]; DCP + (I)(R=CH3)): 22.0 U/l
- Serum GPT (in words) ([3]; DCP-treated rats): maintained within standard limits
- blastization (tritiated thymidine incorporation), Young ([4]; 600 mg/kg i.p. 15 days + ConA): 714 ± 23 DPM × 100
- blastization (tritiated thymidine incorporation), Elderly ([4]; 600 mg/kg i.p. 15 days + ConA, *P < 0.05): 512 ± 27 DPM × 100
- incorporation index of tritiated thymidine, young rats (in words) [4, 8]: did not differ from controls
- index of thymidine incorporation, old rats (in words) [4, 8]: showed an increased index of thymidine incorporation in respect of controls
- Mice with neoplasms, % [5, 9]: 50%
- Mice with neoplasms/group [5, 9]: 3/6
- development of tumours of the lungs (in words) ([5]; chronic treatment): significantly slowed down the development of tumours of the lungs; also recorded: its action seems most potent on the tumours directly induced by contact with a chemical carcinogen, such as urethane
- MDA [6]: 0.723 +/- 0.32 nmols/mg proteins
- behaviour and death rate of the test groups (in words) [7]: did not significantly affect the behaviour and death rate of the various test groups
- death in tested groups (in words) [7]: no death occurred in all tested groups

— patent US5736565A, “Therapeutic compounds suitable for the treatment of diseases connected with glutathione deficiency, process for their preparation, and pharmaceutical compositions containing same” (Prospa B.V., priority 1992, dated 1998)
